# Test system: HT29, a colon cancer tumor line
# Assay: HT29 colon cancer tumor in nude mouse, average tumor weight
# Format: in vivo
# Experimental: Imidazo [4,5-b]pyridine-2-carbamic acid, methyl ester was used to treat HT29, a colon cancer tumor line, in nude mouse. The average tumor weight is reported in mg. The control was the vehicle given twice a week. The imidazo [4,5-b]pyridine-2-carbamic acid, methyl ester was also given on this same schedule. Both compounds were administered by oral gavage.
smiles,measurement,setting,value
"COC(=O)Nc1nc2ncccc2[nH]1 [pyridinyl, imidazo [4,5-b]pyridine-2-carbamic acid, methyl ester]",Average Tumor Weight on Day 1,1000 mg/kg p.o. twice a week,75.4 mg
same,Average Tumor Weight on Day 5,1000 mg/kg p.o. twice a week,97.2 mg
same,Average Tumor Weight on Day 8,1000 mg/kg p.o. twice a week,138.2 mg
same,Average Tumor Weight on Day 11,1000 mg/kg p.o. twice a week,172.1 mg
same,Average Tumor Weight on Day 15,1000 mg/kg p.o. twice a week,220.1 mg
same,Average Tumor Weight on Day 18,1000 mg/kg p.o. twice a week,281.6 mg
same,Average Tumor Weight on Day 23,1000 mg/kg p.o. twice a week,340.6 mg
same,Average Tumor Weight on Day 26,1000 mg/kg p.o. twice a week,407.6 mg
same,Average Tumor Weight on Day 30,1000 mg/kg p.o. twice a week,515.6 mg
same,Average Tumor Weight on Day 33,"1000 mg/kg p.o. twice a week, day 33",562 mg
same,Average Tumor Weight on Day 37,"1000 mg/kg p.o. twice a week, day 37",828.3 mg
same,Average Tumor Weight on Day 40,"1000 mg/kg p.o. twice a week, day 40",533.7 mg
same,Average Tumor Weight on Day 44,"1000 mg/kg p.o. twice a week, day 44",714.4 mg
same,Average Tumor Weight on Day 47,"1000 mg/kg p.o. twice a week, day 47",656.8 mg
same,Average Tumor Weight on Day 51,"1000 mg/kg p.o. twice a week, day 51",763.6 mg
same,Average Tumor Weight on Day 54,"1000 mg/kg p.o. twice a week, day 54",793.3 mg
same,Average Tumor Weight on Day 58,"1000 mg/kg p.o. twice a week, day 58",919 mg
same,Average Tumor Weight on Day 1,2500 mg/kg p.o. twice a week,76.2 mg
same,Average Tumor Weight on Day 5,2500 mg/kg p.o. twice a week,62.6 mg
same,Average Tumor Weight on Day 8,2500 mg/kg p.o. twice a week,115.2 mg
same,Average Tumor Weight on Day 11,2500 mg/kg p.o. twice a week,101.1 mg
same,Average Tumor Weight on Day 15,2500 mg/kg p.o. twice a week,196 mg
same,Average Tumor Weight on Day 18,2500 mg/kg p.o. twice a week,126 mg
same,Average Tumor Weight on Day 23,2500 mg/kg p.o. twice a week,256 mg
same,Average Tumor Weight on Day 26,2500 mg/kg p.o. twice a week,171.5 mg
same,Average Tumor Weight on Day 1,1500 m/kg p.o. twice a week,76.6 mg
same,Average Tumor Weight on Day 5,1500 m/kg p.o. twice a week,76.1 mg
same,Average Tumor Weight on Day 8,1500 m/kg p.o. twice a week,94.4 mg
same,Average Tumor Weight on Day 11,1500 m/kg p.o. twice a week,130 mg
same,Average Tumor Weight on Day 15,1500 m/kg p.o. twice a week,166.3 mg
same,Average Tumor Weight on Day 18,1500 m/kg p.o. twice a week,189.3 mg
same,Average Tumor Weight on Day 23,1500 m/kg p.o. twice a week,242.3 mg
same,Average Tumor Weight on Day 26,1500 m/kg p.o. twice a week,264 mg
same,Average Tumor Weight on Day 30,1500 m/kg p.o. twice a week,405 mg
